Where “and” joins values, the source holds several entries; their conditions need not be identical. Equal values may be shown once.
How the values were obtained:
D(3) dopamine receptor = D(3) dopamine receptor (Rattus norvegicus, UniProt P19020)
D(4) dopamine receptor = target: T1, D(4) dopamine receptor (Rattus norvegicus, UniProt P30729)
T1 sequence (P30729 whole entry): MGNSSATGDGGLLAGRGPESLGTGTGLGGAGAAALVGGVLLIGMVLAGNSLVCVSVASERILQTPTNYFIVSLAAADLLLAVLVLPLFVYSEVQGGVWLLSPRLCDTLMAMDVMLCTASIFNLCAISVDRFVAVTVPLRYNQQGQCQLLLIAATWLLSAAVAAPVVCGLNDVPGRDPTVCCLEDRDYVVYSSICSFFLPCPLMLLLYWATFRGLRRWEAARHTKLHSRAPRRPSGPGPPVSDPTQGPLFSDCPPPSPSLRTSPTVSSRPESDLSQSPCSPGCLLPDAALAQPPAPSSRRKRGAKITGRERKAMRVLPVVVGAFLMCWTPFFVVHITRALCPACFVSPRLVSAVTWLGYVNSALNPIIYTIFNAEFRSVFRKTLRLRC

[1] = target: 5-hydroxytryptamine receptor 6 (Rattus norvegicus, UniProt P31388)
[2] = target: 5-hydroxytryptamine receptor 7 (Rattus norvegicus, UniProt P32305)
D(1A) dopamine receptor = D(1A) dopamine receptor (Rattus norvegicus, UniProt P18901)
D(1B) dopamine receptor = D(1B) dopamine receptor (Rattus norvegicus, UniProt P25115)
Sequence of D(1B) dopamine receptor (P25115 whole entry): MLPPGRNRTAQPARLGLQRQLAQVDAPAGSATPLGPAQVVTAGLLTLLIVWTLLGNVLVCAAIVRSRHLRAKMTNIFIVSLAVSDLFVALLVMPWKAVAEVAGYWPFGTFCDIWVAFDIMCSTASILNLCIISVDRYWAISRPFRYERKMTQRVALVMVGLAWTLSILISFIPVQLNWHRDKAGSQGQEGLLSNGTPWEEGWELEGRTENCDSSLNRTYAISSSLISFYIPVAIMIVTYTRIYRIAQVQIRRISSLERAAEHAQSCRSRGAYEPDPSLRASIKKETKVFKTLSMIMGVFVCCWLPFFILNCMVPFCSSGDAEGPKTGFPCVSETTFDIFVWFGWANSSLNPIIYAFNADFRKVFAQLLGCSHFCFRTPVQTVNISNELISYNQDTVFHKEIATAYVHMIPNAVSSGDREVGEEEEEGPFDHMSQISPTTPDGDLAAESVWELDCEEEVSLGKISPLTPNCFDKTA

Sequence of D(3) dopamine receptor (P19020 whole entry): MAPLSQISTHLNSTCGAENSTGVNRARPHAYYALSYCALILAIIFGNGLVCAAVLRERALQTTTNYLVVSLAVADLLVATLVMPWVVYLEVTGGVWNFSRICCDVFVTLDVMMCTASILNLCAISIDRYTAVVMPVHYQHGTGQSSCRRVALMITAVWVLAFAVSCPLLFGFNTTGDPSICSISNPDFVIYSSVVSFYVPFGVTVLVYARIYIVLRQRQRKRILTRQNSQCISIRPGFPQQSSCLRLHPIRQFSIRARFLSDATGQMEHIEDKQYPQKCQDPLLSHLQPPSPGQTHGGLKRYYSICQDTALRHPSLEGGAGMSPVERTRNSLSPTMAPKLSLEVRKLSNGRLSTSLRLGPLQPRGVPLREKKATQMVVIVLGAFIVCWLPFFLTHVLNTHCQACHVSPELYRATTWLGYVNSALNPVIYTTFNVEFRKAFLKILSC
Sequence of 5-hydroxytryptamine receptor 6 (P31388 whole entry): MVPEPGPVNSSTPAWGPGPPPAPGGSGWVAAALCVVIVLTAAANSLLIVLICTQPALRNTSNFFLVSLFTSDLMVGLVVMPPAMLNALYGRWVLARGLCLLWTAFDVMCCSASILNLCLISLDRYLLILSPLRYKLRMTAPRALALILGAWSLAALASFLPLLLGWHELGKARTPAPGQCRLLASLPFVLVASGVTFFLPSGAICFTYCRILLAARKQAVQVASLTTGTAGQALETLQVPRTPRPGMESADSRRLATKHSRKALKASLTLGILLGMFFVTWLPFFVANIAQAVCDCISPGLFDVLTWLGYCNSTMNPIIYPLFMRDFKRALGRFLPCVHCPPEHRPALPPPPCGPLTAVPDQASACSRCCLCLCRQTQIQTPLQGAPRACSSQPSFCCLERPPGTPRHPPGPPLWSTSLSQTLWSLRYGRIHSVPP
Sequence of D(1A) dopamine receptor (P18901 whole entry): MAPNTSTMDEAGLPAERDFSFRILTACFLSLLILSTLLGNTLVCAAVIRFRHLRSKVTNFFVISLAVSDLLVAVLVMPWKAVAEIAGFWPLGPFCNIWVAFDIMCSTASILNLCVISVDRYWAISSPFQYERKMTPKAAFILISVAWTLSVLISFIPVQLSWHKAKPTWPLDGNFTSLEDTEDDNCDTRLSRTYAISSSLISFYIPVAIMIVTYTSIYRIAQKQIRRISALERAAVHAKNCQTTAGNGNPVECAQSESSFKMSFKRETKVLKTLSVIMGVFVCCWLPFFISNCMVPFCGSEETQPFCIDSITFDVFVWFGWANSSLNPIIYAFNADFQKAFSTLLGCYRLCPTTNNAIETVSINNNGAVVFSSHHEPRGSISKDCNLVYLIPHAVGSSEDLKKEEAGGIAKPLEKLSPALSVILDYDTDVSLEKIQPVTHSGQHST
Sequence of 5-hydroxytryptamine receptor 7 (P32305 whole entry): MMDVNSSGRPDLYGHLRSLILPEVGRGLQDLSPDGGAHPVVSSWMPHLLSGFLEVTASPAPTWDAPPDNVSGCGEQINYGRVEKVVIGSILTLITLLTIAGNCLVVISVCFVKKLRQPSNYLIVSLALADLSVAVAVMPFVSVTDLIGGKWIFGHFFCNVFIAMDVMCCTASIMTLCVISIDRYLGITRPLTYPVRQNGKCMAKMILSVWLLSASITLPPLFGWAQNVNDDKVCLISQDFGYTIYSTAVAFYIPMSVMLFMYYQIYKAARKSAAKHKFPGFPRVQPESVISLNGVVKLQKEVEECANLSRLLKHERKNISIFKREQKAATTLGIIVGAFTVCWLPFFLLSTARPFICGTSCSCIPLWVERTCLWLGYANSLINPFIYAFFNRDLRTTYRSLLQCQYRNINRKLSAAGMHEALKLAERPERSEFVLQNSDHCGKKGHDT

Compound	Ki (D(3) dopamine receptor)	Ki (D(4) dopamine receptor) [nM]	Ki [1] [nM]	Ki [2] [nM]	Ki (D(1A) dopamine receptor) [nM]	Ki (D(1B) dopamine receptor) [nM]
CCc1cc(Cl)c(OC)c(C(=O)NC[C@@H]2CCCN2CC)c1O [3-Chloro-5-ethyl-N-((S)-1-ethyl-pyrrolidin-2-ylmethyl)-6-hydroxy-2-methoxy-benzamide]	0.36 nM and 0.14 nM	64	–	–	–	–
O=C1CCc2ccc(OCCCCN3CCN(c4cccc(Cl)c4Cl)CC3)cc2N1 [7-{4-[4-(2,3-dichlorophenyl)piperazin-1-yl]butoxy}-3,4-dihydroquinolin-2(1H)-one]	–	–	161	–	–	–
Cc1c(O)ccc(N2CCN(CCCCOc3ccc4c(c3)NC(=O)CC4)CC2)c1C [7-{4-[4-(4-hydroxy-2,3-dimethylphenyl)piperazin-1-yl]butoxy}-1,2,3,4-tetrahydroquinolin-2-one]	4.5 nM and 1.63 nM	120	–	220	460	> 10000
Cc1cccc(N2CCN(CCCOc3ccc4ccc(=O)[nH]c4c3)CC2)c1C [NSC_163839]	18 nM and 81.7 nM	280	680	22	> 10000	> 10000

Source: BindingDB's records for doi:10.1016/S0893-133X(98)00099-2 (University of North Carolina, 1999)
